One data set relates to Fibronectin (FN). As to the kind of experiment: EMT on target screen, FN read-out. Type of data set: cell-based, human. The conditions noted are these: for OT FN Screen Z-score 2: as E11, duplicate 2; for Both (shRNA is a hit again in both OT assays, Yes/No): on target validation, Table 16; for OT FN Screen Z-score 1: robust Z-score, HBEC donor Br299, duplicate 1, cut-off Z ≦ −1.25.

The next data set relates to MMP10. Description: EMT on target screen, MMP10 read-out. Format: cell-based, human. Particulars: for OT MMP10 Screen Z-score 2: as E13, duplicate 2; for OT MMP10 Screen Z-score 1: robust Z-score, HBEC donor Br299, duplicate 1, cut-off Z ≦ −1.25.
The subject of data set [1] is HBEC.
For data set [2], the system named is HBEC. As to the kind of experiment: ATPlite secondary toxicity assay.
Text: In addition, a second toxicity assay was developed using the ATPlite (Perkin Elmer) assay to evaluate possible toxicity caused by target viruses. With this assay ATP, which is produced by metabolically active cells, reacts with luciferase and D-luciferin to emit light. This assay is based on the luciferase-mediated and ATP-dependent conversion of D-luciferin into oxyluciferin resulting in emission of light. The emitted light, measured as luminescence, is proportional to the ATP concentration in the sample and thus to the number of viable cells.
A staurosporin concentration curve (two-fold dilution ranging from 1 to 0.03 μM) was added to each cell plate as a reference for toxicity and the ATPlite read-out was performed.
The data after log transformation and robust Z-score normalization based on negatives was used for the analysis of the results.
In data set [3] the test system is HBEC. As to the kind of experiment: CellTiter-Blue (CTB) cell viability assay in on target screen. For orientation: Alamar Blue is a resazurin reagent that responds to reducing activity.

This note sets out measurements from patent publication US20160003808A1, “MOLECULAR TARGETS AND COMPOUNDS, AND METHODS TO IDENTIFY THE SAME, USEFUL IN THE TREATMENT OF DISEASES ASSOCIATED WITH EPITHELIAL MESENCHYMAL TRANSITION” (GALAPAGOS NV, priority 2013, published 2016).

Consider “62 (CAGATTCCATCTGATGGCC; chemistry not given here) [compound 62]”, for which, in the data set with Fibronectin (FN), the “OT FN Screen Z-score 2” value is given as -5.21; the “Both (shRNA is a hit again in both OT assays, Yes/No)” value is reported as “yes”; the “OT FN Screen Z-score 1” value is listed as -4.99. Also, in the data set on MMP10, the “OT MMP10 Screen Z-score 2” value is listed as -2.79 and the “OT MMP10 Screen Z-score 1” value is -2.75. Besides, in the data set with HBEC [1], the “OT CTB assay Z-score 1” value is -3.19 and the “OT CTB assay Z-score 2” value is on record as -2.25.

For “63 (GAATTTCAGAAGTACTGTG; chemistry not given here) [compound 63]”, in the data set with Fibronectin (FN), the “OT FN Screen Z-score 2” value is on record as -3.76; the “Both (shRNA is a hit again in both OT assays, Yes/No)” value is “no”; the “OT FN Screen Z-score 1” value is -3.62. Also, in the data set on MMP10, the “OT MMP10 Screen Z-score 2” value worked out at 2.02 and the “OT MMP10 Screen Z-score 1” value is 1.53. In addition, in the data set with HBEC [1], the “OT CTB assay Z-score 1” value is on record as -2.12 and the “OT CTB assay Z-score 2” value is -3.06.

Take “64 (GTCCAACAGAAGTACGTGC; chemistry not given here) [compound 64]”: in the data set with Fibronectin (FN), the “OT FN Screen Z-score 2” value is given as -2.52; the “Both (shRNA is a hit again in both OT assays, Yes/No)” value is listed as “no”; the “OT FN Screen Z-score 1” value is -3.09. Further, in the data set with MMP10, the “OT MMP10 Screen Z-score 2” value is reported as 1.09 and the “OT MMP10 Screen Z-score 1” value is -0.07. Further, in the data set on HBEC [1], the “OT CTB assay Z-score 1” value was determined as 1.00 and the “OT CTB assay Z-score 2” value is given as -1.33.

For the molecule “65 (GGCCATGATTGAGAAACTC; chemistry not given here) [compound 65]”, in the data set on Fibronectin (FN), the “OT FN Screen Z-score 2” value is -4.03; the “Both (shRNA is a hit again in both OT assays, Yes/No)” value is “no”; the “OT FN Screen Z-score 1” value is recorded as -4.35. For the same molecule, in the data set on MMP10, the “OT MMP10 Screen Z-score 2” value is on record as -3.44 and the “OT MMP10 Screen Z-score 1” value was -5.08. In addition, in the data set on HBEC [1], the “OT CTB assay Z-score 1” value amounted to 1.09 and the “OT CTB assay Z-score 2” value was determined as 1.89.

Regarding “66 (GAAGGAGCTACTCATCTTC; chemistry not given here) [compound 66]”, in the data set on Fibronectin (FN), the “OT FN Screen Z-score 2” value is listed as -4.82; the “Both (shRNA is a hit again in both OT assays, Yes/No)” value is given as “yes”; the “OT FN Screen Z-score 1” value is given as -2.81. Also, in the data set on MMP10, the “OT MMP10 Screen Z-score 2” value is reported as 0.70 and the “OT MMP10 Screen Z-score 1” value is recorded as -1.93. In the data set on HBEC [1], the “OT CTB assay Z-score 1” value is -2.25 and the “OT CTB assay Z-score 2” value is -4.39.

With “67 (CAAGAGCGATGCCTATTAC; chemistry not given here) [compound 67]”, in the data set on Fibronectin (FN), the “OT FN Screen Z-score 2” value was -2.65; the “Both (shRNA is a hit again in both OT assays, Yes/No)” value is “no”; the “OT FN Screen Z-score 1” value is on record as -3.19. For the same molecule, in the data set on MMP10, the “OT MMP10 Screen Z-score 2” value came to 0.32 and the “OT MMP10 Screen Z-score 1” value is recorded as 1.39. Also, in the data set with HBEC [1], the “OT CTB assay Z-score 1” value is listed as -3.77 and the “OT CTB assay Z-score 2” value is -3.83.

Take “68 (CATCAGCTTCCTGCTGGGC; chemistry not given here) [compound 68]”: in the data set on Fibronectin (FN), the “OT FN Screen Z-score 2” value is reported as -5.66; the “Both (shRNA is a hit again in both OT assays, Yes/No)” value is given as “yes”; the “OT FN Screen Z-score 1” value is -4.29. Moreover, in the data set on MMP10, the “OT MMP10 Screen Z-score 2” value is -0.35 and the “OT MMP10 Screen Z-score 1” value was -1.18. For the same molecule, in the data set with HBEC [1], the “OT CTB assay Z-score 1” value is -2.64 and the “OT CTB assay Z-score 2” value is on record as -2.21.

On to “69 (GATGGAGCGCTTACACTAC; chemistry not given here) [compound 69]”, for which, in the data set on Fibronectin (FN), the “OT FN Screen Z-score 2” value is reported as -5.75; the “Both (shRNA is a hit again in both OT assays, Yes/No)” value was “no”; the “OT FN Screen Z-score 1” value is reported as -4.37. For the same molecule, in the data set with MMP10, the “OT MMP10 Screen Z-score 2” value is given as -3.43 and the “OT MMP10 Screen Z-score 1” value was -4.95. Also, in the data set with HBEC [1], the “OT CTB assay Z-score 1” value is -3.34 and the “OT CTB assay Z-score 2” value is given as -1.32.

Consider “70 (GAGTTTGCCTACTCAGAGG; chemistry not given here) [compound 70]”, for which, in the data set with Fibronectin (FN), the “OT FN Screen Z-score 2” value is -4.05; the “Both (shRNA is a hit again in both OT assays, Yes/No)” value is “no”; the “OT FN Screen Z-score 1” value is recorded as -4.52. Further, in the data set on MMP10, the “OT MMP10 Screen Z-score 2” value is -1.35 and the “OT MMP10 Screen Z-score 1” value is on record as -4.35. For the same molecule, in the data set with HBEC [1], the “OT CTB assay Z-score 1” value is on record as 0.19 and the “OT CTB assay Z-score 2” value is on record as 1.51.

Take “71 (CACGGCTCTCCTATTTGTC; chemistry not given here) [compound 71]”: in the data set on Fibronectin (FN), the “OT FN Screen Z-score 2” value was -1.64; the “Both (shRNA is a hit again in both OT assays, Yes/No)” value is “no”; the “OT FN Screen Z-score 1” value was -1.73. Further, in the data set with MMP10, the “OT MMP10 Screen Z-score 2” value is 0.95 and the “OT MMP10 Screen Z-score 1” value turned out to be 0.88. In the data set on HBEC [1], the “OT CTB assay Z-score 1” value is on record as -5.58 and the “OT CTB assay Z-score 2” value was -4.56.

For “72 (GAGTTGGACAGTGGAGGAC; chemistry not given here) [compound 72]”, in the data set on Fibronectin (FN), the “OT FN Screen Z-score 2” value is -7.31; the “Both (shRNA is a hit again in both OT assays, Yes/No)” value is “yes”; the “OT FN Screen Z-score 1” value is reported as -3.99. Also, in the data set with MMP10, the “OT MMP10 Screen Z-score 2” value is on record as -6.59 and the “OT MMP10 Screen Z-score 1” value is on record as -4.52. In the data set on HBEC [1], the “OT CTB assay Z-score 1” value is reported as -3.13 and the “OT CTB assay Z-score 2” value is -4.22.

On to “73 (GAAACCATCCTTTCTTGAA; chemistry not given here) [compound 73]”, for which, in the data set on Fibronectin (FN), the “OT FN Screen Z-score 2” value is -2.91; the “Both (shRNA is a hit again in both OT assays, Yes/No)” value is on record as “no”; the “OT FN Screen Z-score 1” value is -2.09. In the data set on MMP10, the “OT MMP10 Screen Z-score 2” value was 0.06 and the “OT MMP10 Screen Z-score 1” value is listed as -0.19. For the same molecule, in the data set with HBEC [1], the “OT CTB assay Z-score 1” value was -1.31 and the “OT CTB assay Z-score 2” value is given as -2.09.

Consider “74 (AGACCTGGTCTACATCGAC; chemistry not given here) [compound 74]”, for which, in the data set with Fibronectin (FN), the “OT FN Screen Z-score 2” value is -4.17; the “Both (shRNA is a hit again in both OT assays, Yes/No)” value is recorded as “no”; the “OT FN Screen Z-score 1” value is -2.80. Besides, in the data set on MMP10, the “OT MMP10 Screen Z-score 2” value was -2.12 and the “OT MMP10 Screen Z-score 1” value is -2.88. Also, in the data set on HBEC [1], the “OT CTB assay Z-score 1” value is given as -8.40 and the “OT CTB assay Z-score 2” value is -6.74.

On to “75 (TCGCTAGGTATGAATAACC; chemistry not given here) [compound 75]”, for which, in the data set with Fibronectin (FN), the “OT FN Screen Z-score 2” value was -2.58; the “Both (shRNA is a hit again in both OT assays, Yes/No)” value was “yes”; the “OT FN Screen Z-score 1” value is reported as -2.04. In addition, in the data set with MMP10, the “OT MMP10 Screen Z-score 2” value was -0.75 and the “OT MMP10 Screen Z-score 1” value is on record as 0.15. Moreover, in the data set with HBEC [1], the “OT CTB assay Z-score 1” value is -0.46 and the “OT CTB assay Z-score 2” value is reported as -2.90.

`CN[C@@H]1C[C@H]2O[C@@](C)([C@@H]1OC)n1c3ccccc3c3c4c(c5c6ccccc6n2c5c31)C(=O)NC4` [staurosporin]: the toxicity with HBEC [2] (0.6 μM staurosporin treatment) is recorded as 30%. Moreover, in the data set with HBEC [2] (0.6 μM staurosporin, robust Z-score on negatives), the “average Z-score” value is given as −5.5. Besides, the “luminescence at highest concentration of staurosporin used” value in the data set with HBEC [2] (concentration curve 1 to 0.03 μM) is given as “decreased the luminescence to near background signal”. Also, the “average Z-score of CTB data” value with HBEC [3] (0.03 μM staurosporin, lowest concentration of the standard curve) was “within the same range as the control panel and the trigger only samples”. For the same molecule, in the data set with HBEC [3] (0.06 μM staurosporin), the “Z-score of CTB data” value is listed as “decreased clearly”.
